Read-outs that look alike come from different tables or passages of the source. Marks after values point to notes of the source that are not given here. Positions of bridges follow the written chain, without caps; N, C: chain ends. Non-standard residues stand in square brackets, D forms with d. Residues, ends and D or L forms follow the SMILES beside them. No end group written: not given here.
Tests used:
[1] = test system: MIP1α induced THP-1 migration; assay: THP-1 trans-well migration assay, MIP1α as chemoattractant; format: cell-based, human; details: for % inhibition at 100 μM versus MIP1α, THP-1 migration: n.s. = no statistically significant inhibition
Procedure, shortened: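 5×10^4 THP-1 cells with serially diluted peptide in upper chamber, 5 µm filter, recombinant human chemokine 50 ng/ml (5.9 nM) in lower chamber. Incubated 4 h at 37 °C. Migrated cells counted by MTT staining, A595 read against a THP-1 standard curve.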

[2] = test system: chemokine-induced THP-1 migration; assay: THP-1 trans-well migration assay, panel of chemokines (MCP-1, MIP1α, IL-8, SDF1α); format: cell-based, human; details: for effect on THP-1 migration induced by the chemokine panel, in words: IL-8, SDF1α; for CC SPECIFICITY: average inhibitory ED50 versus SDF1 and IL8 divided by average inhibitory ED50 versus MCP-1 and MIP1α
[3] = molecular target: T1, Duffy Antigen Receptor for Chemokines (DARC) (Homo sapiens, UniProt Q16570); assay: DARC binding: competition with 125I-MCP-1 on red blood cells; details: for DUFFY SELECTIVITY, peptide 2 family: ka for binding to red blood cells divided by the ka for binding THP-1 cells
T1 sequence (Q16570 1-336): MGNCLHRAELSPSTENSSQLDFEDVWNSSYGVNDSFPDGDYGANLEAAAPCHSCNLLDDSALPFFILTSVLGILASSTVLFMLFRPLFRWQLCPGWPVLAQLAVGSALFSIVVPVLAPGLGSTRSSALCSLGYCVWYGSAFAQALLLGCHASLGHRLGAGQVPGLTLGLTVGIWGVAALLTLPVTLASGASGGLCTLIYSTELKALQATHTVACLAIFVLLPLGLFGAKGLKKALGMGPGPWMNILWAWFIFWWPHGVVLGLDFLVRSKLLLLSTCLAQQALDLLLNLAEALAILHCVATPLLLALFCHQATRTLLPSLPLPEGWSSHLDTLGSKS

[4] = test system: IL8 induced THP-1 migration; assay: THP-1 trans-well migration assay, IL-8 as chemoattractant; format: cell-based, human; details: for % inhibition at 100 μM versus IL8, THP-1 migration: n.s. = no statistically significant inhibition
Procedure: To determine whether an agent inhibits a chemokine-induced activity, such as macrophage recruitment, varying amounts of the agent are mixed with cells in the presence of a known chemoattractant. For example, a range of known concentrations of an agent, e.g., a chemokine peptide, is incubated with a defined number (e.g., 10^4-10^6) of human THP-1 monocyte cells in individual wells of the top compartment of a trans-well plate. Chemokine (such as MCP-1, MIP1α, IL8 or SDF-1α), at a concentration known to cause significant migration of THP-1 cells in the trans-well migration assay, is placed in the lower compartment (FIG. 1). Cells are then incubated at 37° C. for a period sufficient to allow migration, e.g., 4 hours. After incubation, the cells are gently removed from the top of the filter with a pipette, 20 μl of 20 mM EDTA in simple PBS is added into each top well, and incubated for 20 minutes at 4° C. The filter is carefully flushed with media using a gentle flow, and removed. A standard curve consisting of a two-fold dilution series of THP-1 cells (in 29 μl) is prepared to accurately quantify the number of cells that have migrated. Migrated cells are stained with 3 μl of MTT stock dye solution which is added directly into each well (5 mg/ml in RPMI-1640 without phenol red, Sigma Chemical Co.) and incubated at 37° C. for 4 hours. The media is carefully aspirated from each well, and the converted dye is solubilized by 20 μl of DMSO. Absorbance of converted dye is measured at a wavelength of 595 nm using an ELISA plate reader. The number of migrated cells in each well is then determined by interpolation of the standard curve (see also Imai et al., J. Biol. Chem., 272, 15036 (1997)).
For this assay, THP-1 cells were maintained at a density of 4×10^5 cells per ml in RPMI-1640 supplemented with 10% fetal calf serum+20 μM 2-mercaptoethanol. Chemotaxis was induced in a 96-well disposable chemotaxis chamber fitted with a […] polycarbonate filter (PVP free, ChemoTX, Neuroprobe Inc., Cabin John). Twenty-nine μl of chemoattractant (recombinant human chemokine; 50 ng/ml, i.e., 5.9 nM) or control (100 ng/ml TGFβ) was added to the lower compartment of each well. The framed filter was aligned with the holes in the corner of the filter frame and placed over the wells. Five×10^4 THP-1 cells in 25 μl of RPMI-1640 were added to the upper compartment. Peptides were dissolved in Milli Q water and then serially diluted in culture medium. In most cases, the serially diluted peptides were added to the upper compartment of the chemotaxis chamber. The chamber was incubated at 37° C. in a humidified atmosphere of 5% CO2 for 4 hours.
After incubation, the cells were gently removed from the top of the filter with a pipette, 20 μl of 20 mM EDTA in PBS was added into each top well, and the mixture was incubated for 20 minutes at 4° C. The filter was then carefully flushed with media using a gentle flow, and removed. A standard curve was prepared to accurately quantify the number of THP-1 cells that had migrated. The curve was based on a two-fold dilution series of THP-1 cells (top standard 100,000 cells in 29 μl). Cells which had migrated, and in separate wells, the cells in the standards, were stained with 3 μl of MTT stock solution which was added directly into each well (5 mg/ml in RPMI 1640 without phenol red, Sigma Chemical Co.) and incubated at 37° C. for 4 hours. The media was carefully aspirated from each well, and the converted dye was solubilized by 20 μl of DMSO. Absorbance of converted dye was measured at a wavelength of 595 nm using an ELISA plate reader. The number of cells that had migrated in each well was determined by interpolation of the standard curve.

[5] = test system: TGFβ1 induced THP-1 migration; assay: THP-1 trans-well migration assay, TGFβ1 as non-chemokine control; format: cell-based, human; details: for ED50 versus TGFβ1, inhibition of THP-1 migration: n.s. = no statistically significant inhibition (p > 0.05); for % inhibition at 100 μM versus TGFβ1, THP-1 migration: n.s. = no statistically significant inhibition
Procedure: Any method suitable for counting cells can be used, for example, counting with a hemocytometer, incubation of the cells with MTT (see above), or FACS analysis. A negative control assay is also performed, using TGF-β or another non-chemokine chemoattractant (e.g., IL1β or TNFα). To assess whether the agent is cytotoxic, the same concentrations of agent are incubated with THP-1 cells. Agents which 1) are not cytotoxic at levels which inhibit migration, 2) are ineffective at inhibiting the negative control-induced migration, and 3) reduce or inhibit chemokine-induced THP-1 migration, are agents which fall within the scope of the invention.
Chemotaxis was induced in a 96-well disposable chemotaxis chamber fitted with a […] polycarbonate filter (PVP free, ChemoTX, Neuroprobe Inc., Cabin John). […] The framed filter was aligned with the holes in the corner of the filter frame and placed over the wells. […] Peptides were dissolved in Milli Q water and then serially diluted in culture medium. In most cases, the serially diluted peptides were added to the upper compartment of the chemotaxis chamber. The chamber was incubated at 37° C. in a humidified atmosphere of 5% CO2 for 4 hours.
After incubation, the cells were gently removed from the top of the filter with a pipette, 20 μl of 20 mM EDTA in PBS was added into each top well, and the mixture was incubated for 20 minutes at 4° C. The filter was then carefully flushed with media using a gentle flow, and removed. […] The curve was based on a two-fold dilution series of THP-1 cells (top standard 100,000 cells in 29 μl). […] The media was carefully aspirated from each well, and the converted dye was solubilized by 20 μl of DMSO.

[6] = n.s. = no statistically significant inhibition (p > 0.05)

## CC[C@@H](C)[C@H]1NC(=O)[C@@H](CCC(N)=O)NC(=O)[C@H](N)CSSC[C@H](C(N)=O)NC(=O)[C@@H](CC(C)C)NC(=O)[C@@H](CC(=O)O)NC(=O)[C@H]2CCCN2C(=O)[C@@H](CCCCN)NC(=O)[C@@H](CCC(N)=O)NC(=O)[C@@H](CCCCN)NC(=O)[C@@H](Cc2c[nH]c3ccccc23)NC1=O (H-[dC][dQ][dI][dW][dK][dQ][dK][dP][dD][dL][dC]-NH2; disulfide 1-11; N-terminus assumed)
[1]; sub-maximal dose of inhibitor in the upper chamber
  shift of the MIP-1α dose response curve to higher concentrations: 5-100 fold
[2]; MCP-1, MIP1α
  effect on THP-1 migration induced by the chemokine panel, in words: inhibited THP-1 cell migration induced by MCP-1, MIP1α, IL-8, and SDF1, with very similar ED50s
[3]
  Kd: 90 µM

## C=CCCCCCCCCC(=O)N[C@H]1CCC(=O)NC1=O [A-I (NR58.4), [3S]-3-(undec-10-enoylamino)piperidine-2,6-dione]
[1]; Homo sapiens, THP-1, read-out: ED50, MIP1α chemotaxis assay
  EC50: 0.0002 µM
[4]; Homo sapiens, THP-1, read-out: ED50, IL-8 chemotaxis assay
  EC50: < 0.01 µM

## NCCCC[C@H](NC(=O)[C@H](CCC(N)=O)NC(=O)[C@@H](N)CCCCN)C(=O)O [KQK]
[1]; [6]
  ED50 versus MIP1α, inhibition of THP-1 migration: n.s.
[4]; [6]
  ED50 versus IL8, inhibition of THP-1 migration: n.s.
[5]
  ED50 versus TGFβ1, inhibition of THP-1 migration: n.s.
[2]; KQK MCP-1, SEE MIP1-α
  specificity for the cognate chemokine over all the other chemokines tested: more than 100 fold
[2]; active against at least one of IL-8, SDF-1α, MCP-1, MIP1α
  Chemokine antagonist: +++++
[2]
  CC SPECIFICITY: >100
[2]; footnote f, KQK MCP-1, SEE MIP1α, KLK SDF1, KEN IL8, read-out: ED50 of a tripeptide against the one chemokine it is highly specific for
  EC50: 6 µM

## EICADPKQKWVQ [peptide 3(1-12)[MCP-1]]
[1]
  % inhibition at 100 μM versus MIP1α, THP-1 migration: 99%
[1]; n.s. = no statistically significant inhibition (p > 0.05), read-out: ED50 versus MIP1α, inhibition of THP-1 migration
  EC50: 8 ± 1 µM
[4]
  % inhibition at 100 μM versus IL8, THP-1 migration: 103%
[4]; n.s. = no statistically significant inhibition (p > 0.05), read-out: ED50 versus IL8, inhibition of THP-1 migration
  EC50: 14 ± 1 µM
[5]
  % inhibition at 100 μM versus TGFβ1, THP-1 migration: n.s.
  ED50 versus TGFβ1, inhibition of THP-1 migration: n.s.
[2]; 100 μM, THP-1
  % inhibition at 100 μM of migration induced by any of the chemokines tested: > 99%
[2]; average inhibitory ED50 for inhibition of THP-1 migration induced by each of the chemokines, read-out: AVERAGE ED50
  EC50: 10 µM
[2]
  CC SPECIFICITY: 1.5
[2]; greater than 1 = greater inhibition of CC chemokines relative to CXC chemokines
  selectivity ratio (CC versus CXC chemokines): 1.5
[3]; estimated ka for binding to red blood cells divided by average inhibitory ED50 versus each of the chemokines
  DUFFY SELECTIVITY (DARC specificity ratio): 1.0

## SYRRITSSKCPKEAV [peptide 2(1-15)[MCP-1]]
[1]
  % inhibition at 100 μM versus MIP1α, THP-1 migration: n.s.
[1]; [6]
  ED50 versus MIP1α, inhibition of THP-1 migration: n.s.
[1]; ns = not significantly different from control
  MIPIa ED-50: ns
[4]
  % inhibition at 100 μM versus IL8, THP-1 migration: n.s.
[4]; [6]
  ED50 versus IL8, inhibition of THP-1 migration: n.s.
[5]
  % inhibition at 100 μM versus TGFβ1, THP-1 migration: n.s.
  ED50 versus TGFβ1, inhibition of THP-1 migration: n.s.
[2]; MCP-1, MIP1α
  effect on THP-1 migration induced by the chemokine panel, in words: no significant effect
[3]; association (affinity) constant for DARC, red blood cells
  Kd: 100 µM
[3]; association constant / affinity for DARC, red blood cells
  Kd: < 0.5 µM
[3]
  DUFFY SELECTIVITY, peptide 2 family: 0.1-0.2
[3]; listed as Pep2[MCP1]
  DUFFY SELECTIVITY, peptide 2 family: 0.18^d

Source: patent US7989466B2, “Methods to inhibit or augment an inflammatory response” (Cambridge Enterprise Limited, priority 1999, dated 2011)
